This is an account of results in patent US12421254B2, “KRAS modulators and uses thereof” (Quanta Therapeutics, Inc., priority 2023, dated 2025).

Assay [1] has as its system phospho-ERK in SW620 (KRAS-G12V) cells. The assay can be described thus: pERK In Cell Western (ICW) assay (Method B), SW620. The assay is classed as cell-based. The conditions noted are these: Homo sapiens, SW-620, 3 h, Table 4. Summed up: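 3 h cpd, 37 °C, ½-log 9-pt dilution; AGS 5,000 cells/well, GP2D/SW620 10,000 cells/well, plated overnight. PFA fix, Triton perm, anti-pERK o/n 4 °C, IRDye 800 secondary + DRAQ5. pERK/DRAQ5 as % blank; IC50 4-PL.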

Assay [2] has as its system phospho-ERK in GP2D (KRAS-G12D) cells. The experiment in a line: pERK In Cell Western (ICW) assay (Method B), GP2D. It counts as cell-based. To be noted: GP2d, 3 h, Table 4. How it is done: pERK ICW is a high throughput screening assay to evaluate the cellular potency of mutant KRAS small molecule inhibitors. KRAS mutant cell lines AGS, GP2D (KRAS-G12D) as well as SW620 (KRAS-G12V) were purchased from ATCC and maintained respectively in RPMI/DMEM/RPMI medium supplemented with 10% fetal bovine serum.
Cells grown in exponential phase were trypsinized, resuspended in fresh media, and viable cells were counted using a cell counter with Trypan Blue (BioRad TC20). Cells were seeded into 384-well plate (Greiner 781091) at density of 5,000 cells/well for AGS and 10,000 cells/well for GP2D/SW620 and allowed to grow overnight in a 37° C. CO2 incubator. The next day, compounds were dispensed into wells with a ½ log, 9-point serial dilution using a Tecan D300e dispenser and incubated for 3 hours in a 37° C. CO2 incubator. Cells were then fixed with paraformaldehyde (Electron Microscopy Sciences, 15710, 4% final concentration) for 30 min, permeabilized with wash buffer (1×PBS+0.1% Triton X-100) for 30 min and blocked with Odyssey blocking buffer (Li—COR 927-70001) for 1 hour, all at room temperature (RT). Phospho-ERK antibody (CST 4370L) was diluted 1:500 in Odyssey T20 (PBS) antibody diluent (Li—COR 927-75001) and incubated with cells overnight at 4° C. The next day, plates were washed 5× with wash buffer, incubated with IRDye 800 CW, Goat anti-Rabbit secondary antibody (Li—COR 926-32211, 1:800) and DRAQ5 (CST 4084L, 1:5,000) diluted in Odyssey T20 (PBS) antibody diluent for 1 hour, washed 5×, and imaged on an Odyssey CLx imaging system.
For data analysis, signal intensities from 800 (phosphor-ERK) and 700 (DRAQ5) channels were extracted, and phospho-ERK signals were normalized to DRAQ5 signals for each well and percent of blank control values were computed. Data were then imported into Graphpad Prism to compute half-maximal inhibitory concentrations (IC50) using a 4-parameter variable slope model. Z-factor for each plate was computed from signals derived from wells treated with either DMSO or 5 μM of control compound. AGS pERK ICW (Method B) IC50 (uM) values of selected compounds are depicted in Table 2 with compounds having a value ≥0.001 uM to 0.01 uM as ++++; ≥0.01 uM to 0.1 uM as +++; ≥0.1 uM to 1 uM as ++; ≥1 uM to 10 uM as + and ≥10 uM as NA.

The target of assay [3] is GST-tagged KRAS-G12V (2-169) (Homo sapiens, UniProt P01116, G12V). The assay can be described thus: Nucleotide exchange assay (NEA), SOS-mediated, HTRF, KRAS G12V. The assay is classed as biochemical. The conditions noted are these: Table 4; IC50 extracted at 90 min; 80 nM SOS. Summed up:
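GST-KRAS-G12V (2-169), 0.25 nM, pre-incubated 1 h at RT with compound, then SOS1cat (564-1049) 80 nM and GTP-DY-647P1 150 nM added in HEPES pH 7.3 buffer with MgCl2 and DTT. HTRF via anti-GST Tb cryptate read over 90 min; IC50 from 4-parameter fit at 90 min, blanked to no-SOS reactions.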
Background: In TR-FRET formats the signal depends on donor and acceptor labels being close together.

Assay [4] addresses GST-tagged KRAS-G12D (2-169) (Homo sapiens, UniProt P01116, G12D). The experiment in a line: Nucleotide exchange assay (NEA), SOS-mediated, HTRF, KRAS G12D. It counts as biochemical. The conditions noted are these: Table 4; IC50 extracted at 30 min; 20 nM SOScat; read-out: NEA G12D IC50. Summed up: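 Compound preincubated 1 h at RT with 0.25 nM GST-KRAS-G12D (2-169) and anti-GST Tb donor, then 20 nM SOS1cat (564-1049) and 150 nM GTP-DY-647P1 added; pH 7.3 HEPES buffer with MgCl2 and DTT. HTRF monitored at RT; % inhibition versus DMSO and no-SOS blank, 4-parameter IC50 taken at 30 min.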

GST-tagged KRAS-G12V (2-169), sequence (P01116 2-169 isoform P01116-2 G12V): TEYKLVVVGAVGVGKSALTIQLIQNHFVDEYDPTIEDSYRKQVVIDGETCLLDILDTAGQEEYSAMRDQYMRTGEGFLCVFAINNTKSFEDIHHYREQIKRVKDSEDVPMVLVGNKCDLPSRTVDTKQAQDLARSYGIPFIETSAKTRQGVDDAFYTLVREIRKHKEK
GST-tagged KRAS-G12D (2-169), sequence (P01116 2-169 isoform P01116-2 G12D): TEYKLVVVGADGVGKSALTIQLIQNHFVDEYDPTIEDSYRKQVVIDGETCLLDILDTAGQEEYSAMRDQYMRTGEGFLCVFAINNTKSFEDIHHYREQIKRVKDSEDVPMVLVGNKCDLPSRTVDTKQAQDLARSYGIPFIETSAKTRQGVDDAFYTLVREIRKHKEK

The term IC50 denotes the point on the concentration scale where inhibition reaches its midpoint. `C[C@H](c1cccnc1N)N(CC(F)F)c1nc(OC[C@@]23CCCN2C[C@H](F)C3)nc(N2CC3(C2)SCc2sc(N)c(C#N)c23)n1` [Compound 183, 2-amino-1′-[4-[[(1R)-1-(2-amino-3-pyridyl)ethyl]-(2,2-difluoroethyl)amino]-6-[[(2R,8S)-2-fluoro-1,2,3,5,6,7-hexahydropyrrolizin-8-yl]methoxy]-1,3,5-triazin-2-yl]spiro[6H-thieno[3,4-b]thiophene-4,3′-azetidine]-3-carbonitrile]: the IC50 in assay [1], in assay [2], in assay [3] and in assay [4] was below 10 nM throughout.

For the compound `CCN(c1nc(OC[C@@H]2CC[C@H]3CN(C)CCN23)nc(N2CC3(C2)SCc2sc(N)c(C#N)c23)n1)[C@H](C)c1cccnc1N` (mixture of isomers) [Compound 219, 1′-[4-[[(6SR,8aSR)-2-methyl-3,4,6,7,8,8a-hexahydro-1H-pyrrolo[1,2-a]pyrazin-6-yl]methoxy]-6-[[(1R)-1-(2-amino-3-pyridyl)ethyl]-ethyl-amino]-1,3,5-triazin-2-yl]-2-amino-spiro[6H-thieno[3,4-b]thiophene-4,3′-azetidine]-3-carbonitrile], the 50% inhibitory concentration (IC50) in assay [1] was 10 to 100 nM; in assay [2] it was 100 to 1000 nM; in assay [3] it was below 10 nM; in assay [4] it was below 10 nM.

On to `CC(c1nsnc1N)N(C)c1nc(OC[C@@]23CCCN2C[C@H](F)C3)nc(N2CC3(C2)SCc2sc(N)c(C#N)c23)n1` (stereo partly drawn) [Compound 174, 2-amino-1′-[4-[1-(4-amino-1,2,5-thiadiazol-3-yl)ethyl-methyl-amino]-6-[[(2R,8S)-2-fluoro-1,2,3,5,6,7-hexahydropyrrolizin-8-yl]methoxy]-1,3,5-triazin-2-yl]spiro[6H-thieno[2,3-c]thiophene-4,3′-azetidine]-3-carbonitrile], for which the IC50 in assay [1] was below 10 nM; in assay [2] it was 10 to 100 nM; in assay [3] it was below 10 nM; in assay [4], below 10 nM.

As to `CCN(c1nc(OCC23CCCN2CCC3)nc(N2CC3(C2)SCc2sc(N)c(C#N)c23)n1)[C@H](C)c1cccnc1N` [Compound 206, (R)-2′-amino-1-(4-((1-(2-aminopyridin-3-yl)ethyl)(ethyl)amino)-6-((tetrahydro-1H-pyrrolizin-7a(5H)-yl)methoxy)-1,3,5-triazin-2-yl)-6′H-spiro[azetidine-3,4′-thieno[3,4-b]thiophene]-3′-carbonitrile], the IC50 was 10 to 100 nM in assay [1], below 10 nM in assay [2], below 10 nM in assay [3] and below 10 nM in assay [4].

For `CC(c1cccnc1O)N(C)c1nc(OC[C@@]23CCCN2C[C@H](F)C3)nc(N2CC3(CCc4sc(N)c(C#N)c43)C2)n1` (stereo partly drawn) [Compound 138, 2-amino-1′-[4-[[(2R,8S)-2-fluoro-1,2,3,5,6,7-hexahydropyrrolizin-8-yl]methoxy]-6-[1-(2-hydroxy-3-pyridyl)ethyl-methyl-amino]-1,3,5-triazin-2-yl]spiro[5,6-dihydrocyclopenta[b]thiophene-4,3′-azetidine]-3-carbonitrile], the IC50 in assay [1] lay in the range of 1000 to 20000 nM; in assay [2] it was 1000 to 20000 nM; in assay [3], 1000 to 20000 nM; in assay [4], 100 to 1000 nM.

On to `CC1(O)CC(F)CN(c2nc(OCC3(CN4CCOCC4)CC3)nc(N3CC4(CCc5sc(N)c(C#N)c54)C3)n2)C1` (centres unmarked) [Compound 93, 2′-amino-1-(4-(5-fluoro-3-hydroxy-3-methylpiperidin-1-yl)-6-((1-(morpholinomethyl)cyclopropyl)methoxy)-1,3,5-triazin-2-yl)-5′,6′-dihydrospiro[azetidine-3,4′-cyclopenta[b]thiophene]-3′-carbonitrile], for which the IC50 is 10 to 100 nM in assay [1], 10 to 100 nM in assay [2], below 10 nM in assay [3] and below 10 nM in assay [4].

In the case of `C[C@H](c1cccnc1N)N(C)c1nc(OC[C@@]23CCCN2C[C@H](F)C3)nc(N2CC(C)(c3csc(N)c3C#N)C2)n1` [Compound 172, 2-amino-4-[1-[4-[[(1R)-1-(2-amino-3-pyridyl)ethyl]-methyl-amino]-6-[[(2R,8S)-2-fluoro-1,2,3,5,6,7-hexahydropyrrolizin-8-yl]methoxy]-1,3,5-triazin-2-yl]-3-methyl-azetidin-3-yl]thiophene-3-carbonitrile], the IC50 is 10 to 100 nM in assay [1], 100 to 1000 nM in assay [2], below 10 nM in assay [3] and below 10 nM in assay [4].

For `CC1(C#N)CCCCN(c2nc(OC[C@@]34CCCN3C[C@H](F)C4)nc(N3CC4(CCc5sc(N)c(C#N)c54)C3)n2)C1` (stereo partly drawn) [Compound 111, 2-amino-1′-[4-(3-cyano-3-methyl-azepan-1-yl)-6-[[(2R,8S)-2-fluoro-1,2,3,5,6,7-hexahydropyrrolizin-8-yl]methoxy]-1,3,5-triazin-2-yl]spiro[5,6-dihydrocyclopenta[b]thiophene-4,3′-azetidine]-3-carbonitrile], the IC50 in assay [1] was 100 to 1000 nM; in assay [2] it was 100 to 1000 nM; in assay [3], below 10 nM; in assay [4], below 10 nM.

As to `N#Cc1c(N)sc2c1C1(CC2)CN(c2nc(OCC3(CN4CCOCC4)CC3)nc(N3CCCCC(C#N)C3)n2)C1` (centres unmarked) [Compound 86, 2-amino-1′-[4-(3-cyanoazepan-1-yl)-6-[[1-(morpholinomethyl)cyclopropyl]methoxy]-1,3,5-triazin-2-yl]spiro[5,6-dihydrocyclopenta[b]thiophene-4,3′-azetidine]-3-carbonitrile], the IC50 in assay [1] was 1000 to 20000 nM; in assay [2], 100 to 1000 nM; in assay [3], 10 to 100 nM; in assay [4], 10 to 100 nM.

On to `CN(C)CC1(COc2nc(N3CC4(C3)SCc3sc(N)c(C#N)c34)nc(N3C[C@@H](F)C[C@@](C)(O)C3)n2)CC1(F)F` (stereo partly drawn) [Compound 153, 2-amino-1′-[4-[[1-[(dimethylamino)methyl]-2,2-difluoro-cyclopropyl]methoxy]-6-[(3R,5S)-5-fluoro-3-hydroxy-3-methyl-1-piperidyl]-1,3,5-triazin-2-yl]spiro[6H-thieno[3,4-b]thiophene-4,3′-azetidine]-3-carbonitrile], for which the IC50 is 10 to 100 nM in assay [1], below 10 nM in assay [2], below 10 nM in assay [3] and below 10 nM in assay [4].

`N#Cc1c(N)sc2c1C1(CN(c3nc(OC[C@@]45CCCN4C[C@H](F)C5)nc(Oc4ccnnc4)n3)C1)SC2` [Compound 169, 2-amino-1′-[4-[[(2R,8S)-2-fluoro-1,2,3,5,6,7-hexahydropyrrolizin-8-yl]methoxy]-6-pyridazin-4-yloxy-1,3,5-triazin-2-yl]spiro[6H-thieno[2,3-c]thiophene-4,3′-azetidine]-3-carbonitrile]: the IC50 was 1000 to 20000 nM in assay [1], 1000 to 20000 nM in assay [2], 100 to 1000 nM in assay [3] and 1000 to 20000 nM in assay [4].

Consider `N#Cc1c(N)sc2c1C1(CN(c3nc(OCC4(CN5CCOCC5)CC4)nc(N4C[C@@H]5CC[C@@H](N5)C4CO)n3)C1)SC2` (stereo partly drawn) [Compound 188, 2′-amino-1-(4-((1R,5S)-2-(hydroxymethyl)-3,8-diazabicyclo[3.2.1]octan-3-yl)-6-((1-(morpholinomethyl)cyclopropyl)methoxy)-1,3,5-triazin-2-yl)-6′H-spiro[azetidine-3,4′-thieno[3,4-b]thiophene]-3′-carbonitrile], for which the IC50 in assay [2] was below 10 nM; in assay [3], 10 to 100 nM; in assay [4], below 10 nM.
